Where a name gives a salt, the structure may show the parent alone.

Assay [1] concerns the target T1, Human FXa (Homo sapiens, UniProt P00742).
T1 construct: Human FXa [Enzyme research Laboratories (USA)] enzyme; purchased Enzyme Research Laboratories (USA)
Briefly: Intravenous administration test in mouse, human FXa inhibitory activity in serum. The format is in vivo. The note with it: ICR mice, i.v., mean ± S.D., n = 3. How it is done:
Intravenous Administration Tests in Mouse
A test compound dissolved in physiological saline was intravenously administered to ICR mice (body weight 20-30 g, 4-6 weeks old) and the activity of the test compound was evaluated based on the human FXa inhibitory activity in serum as an indicator.
At 10, 30, 60, 120 min from the intravenous administration, blood was taken from the eye ground using a hematocrit tube. The blood was centrifuged at 9000 G for 5 min and the obtained serum was used for the determination.
(§1) Human FXa inhibitory activity was measured as follows. Human FXa [Enzyme research Laboratories (USA)] enzyme (40 μl, 0.5 U/ml) and a 4-fold diluted plasma sample (40 μl) were incubated in 0.1M Tris-0.2M NaCl buffer (pH 8.4) (40 μl) at 37° C. for 10 min. A synthetic substrate S-2222 (Daiichi Pure Chemical (Tokyo, Japan), 40 μl) adjusted to 0.8 mM was added and the mixture was incubated at 37° C. for 5 min. The reaction was stopped by addition of 60% acetic acid (40 μl) and absorbance at 405 nm was measured by Model 3550 (BIO-RAD). For the control, serum or plasma obtained prior to blood sampling was used for measurement. Human FXa inhibitory activity was calculated as inhibition percentage (%) against control.

In assay [2] the target is T1, Human FXa. Briefly: Oral administration test in monkey, human FXa inhibitory activity in plasma. The format is in vivo. The note with it: crab-eating monkey, mean ± S.D., n = 3. The protocol:
as §1
Oral Administration Tests in Monkey
A test compound dissolved in distilled water was orally administered to monkey (carb-eating monkey, body weight 3.5-4.5 kg) and the activity of the test compound was evaluated based on the human FXa inhibitory activity in plasma as an indicator.
At 30, 60, 120, 240, 480 min from the oral administration, blood was taken from the saphenous vein with the passage of time and the blood was centrifuged at 2000 G for 10 min. The obtained citric acid plasma was used for the determination. Human FXa inhibitory activity was determined in the same manner as in the test by intravenous administration.

T1 sequence (P00742 235-488 limits assumed): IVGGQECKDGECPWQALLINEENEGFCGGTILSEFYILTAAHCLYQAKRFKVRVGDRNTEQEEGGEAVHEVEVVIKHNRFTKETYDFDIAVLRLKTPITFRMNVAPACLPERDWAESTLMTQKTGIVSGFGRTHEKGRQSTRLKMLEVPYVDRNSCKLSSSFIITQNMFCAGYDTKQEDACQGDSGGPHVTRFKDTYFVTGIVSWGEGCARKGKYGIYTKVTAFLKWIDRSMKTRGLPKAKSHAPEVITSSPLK
T1 sequence (P00742 41-179 limits assumed): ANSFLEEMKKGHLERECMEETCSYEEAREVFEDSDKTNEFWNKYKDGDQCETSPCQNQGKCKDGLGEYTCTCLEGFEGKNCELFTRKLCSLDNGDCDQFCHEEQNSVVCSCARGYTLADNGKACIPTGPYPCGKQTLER

Regarding `CC(=N)N1CCC(Oc2ccc(N(Cc3nc4cc(C(=N)N)ccc4n3CC(=O)N[C@@H](C)c3ccccc3)C(=O)c3ccc(C(=O)O)cc3)cc2)CC1` [Example 17, (S)-4-[N-[5-Amidino-1-(1-phenylethylcarbamoylmethyl)benzimidazole-2-ylmethyl]-N-[4-(1-acetimidoylpiperidin-4-yloxy)phenyl]carbamoyl]benzoic Acid Dihydrochloride], the inhibition at 0.1 mg/kg amounted to 31 ± 3% against Human FXa [1] (10 minutes), 10 ± 3% on Human FXa [1] (30 minutes), 0% against Human FXa [1] (60 minutes) and 0% against Human FXa [1] (120 minutes). The inhibition at 0.3 mg/kg at Human FXa [1] (10 minutes) was 65 ± 1%; against Human FXa [1] (30 minutes), 38 ± 5%; on Human FXa [1] (60 minutes), 16 ± 3%; on Human FXa [1] (120 minutes), 8 ± 4%. The inhibition at 1 mg/kg on Human FXa [1] (10 minutes) amounted to 70 ± 1%; at Human FXa [1] (30 minutes) it was 69 ± 2%; at Human FXa [1] (60 minutes), 41 ± 10%; on Human FXa [1] (120 minutes) it was 1 ± 3%. Moreover, the inhibition at 10 mg/kg turned out to be 62 ± 53% against Human FXa [2] (30 minutes); 62 ± 51% at Human FXa [2] (60 minutes); 83 ± 13% against Human FXa [2] (120 minutes); 68 ± 16% against Human FXa [2] (240 minutes); 27 ± 10% at Human FXa [2] (480 minutes).

What is called inhibition is the percentage by which the read-out fell short of the control. Low readings indicate a weak effect, high ones a strong effect.

The record behind these values is patent publication US6562828B1, “Amidine compounds” (Japan Tobacco Inc., priority 1998, dated 2003).
